Columns and labels:
[1] = Viscosity of aqueous contrast media solution; format: physicochemical; conditions: 300 mg I/ml
Source text: (§1) It was surprising that, per this invention, a comparatively minor chemical modification of the class of compounds described in DOS No. 2,628,517 (U.S. Pat. No. 4,239,747) would lead to a significant improvement in compatibility and to an increase in solubility. This can be seen from Table I wherein the compound A of this invention (malonic acid bis[3,5-bis(1,3-dihydroxyisopropylcarbamoyl)-2,4,6-triiodo-N-2-hydroxyethylanilide]) is compared with respect to osmotic pressure, viscosity, and compatibility with oxalic acid bis[3,5-bis(2,3-dihydroxypropyl-N-methylcarbamoyl)-2,4,6-triiodo-anilide] (B), as well as with iopamidol (5-[α-hydroxypropionyl-amino]-2,4,6-triiodoisopthalic acid bis[1,3-dihydroxyisopropyl-amide]) and metrizamide [2-(3-acetamido-2,4,6-triiodo-5-[N-methylacetamido]benzamido)-2-deoxy-D-glucose)].
(§2) Osmotic Pressure, Viscosity, and Compatibility of Nonionic
(§3) Contrast Media of Different Chemical Structure as an Aqueous
(§4) Solution (Concentration: 300 mg I/ml)

[2] = Osmotic pressure of aqueous contrast media solution; format: physicochemical; conditions: 300 mg I/ml
Source text: as §1, §2, §3, §4

Rat = experiment: Compatibility: LD50 (Rat) upon i.v. injection; format: in vivo; conditions: rate 2 ml/min, aqueous solution 300 mg I/ml
Experimental: as §2, §3, §4
Pressure Viscosity (g Iodine/kg Body

[3] = for angiography and myelography; background; cited from earlier work

## CC(=O)Nc1c(I)c(C(=O)N[C@H]2C(O)O[C@H](CO)[C@@H](O)[C@@H]2O)c(I)c(N(C)C(C)=O)c1I (some centres unmarked) [Metrizamide]
[1]
  Viscosity 37° C.: 6.2 cp
[2]
  Osmotic Pressure 37° C.: 12.3 atm
Rat
  LD50 (Rat) upon i.v. Injection: 12 g Iodine/kg Body Weight
[3]
  concentrated, radiopaque solutions not hypertonic to blood or other body fluid: it has not been possible to prepare solutions sufficiently concentrated and radiopaque

## C[C@H](O)C(=O)Nc1c(I)c(C(=O)NC(CO)CO)c(I)c(C(=O)NC(CO)CO)c1I [Iopamidol, 5-[α-hydroxypropionyl-amino]-2,4,6-triiodoisopthalic acid bis[1,3-dihydroxyisopropyl-amide]]
[1]
  Viscosity 37° C.: 4.7 cp
[2]
  Osmotic Pressure 37° C.: 15.7 atm
Rat
  LD50 (Rat) upon i.v. Injection: 12 g Iodine/kg Body Weight
[3]
  concentrated, radiopaque solutions not hypertonic to blood or other body fluid: it has not been possible to prepare solutions sufficiently concentrated and radiopaque

## CN(CC(O)CO)C(=O)c1c(I)c(NC(=O)C(=O)Nc2c(I)c(C(=O)N(C)CC(O)CO)c(I)c(C(=O)N(C)CC(O)CO)c2I)c(I)c(C(=O)N(C)CC(O)CO)c1I (centres unmarked) [B, oxalic acid bis[3,5-bis(2,3-dihydroxypropyl-N-methylcarbamoyl)-2,4,6-triiodo-anilide]]
[1]
  Viscosity 37° C.: 13.7 cp
[2]
  Osmotic Pressure 37° C.: 4.3 atm
Rat
  LD50 (Rat) upon i.v. Injection: 13 g Iodine/kg Body Weight

## O=C(NC(CO)CO)c1c(I)c(C(=O)NC(CO)CO)c(I)c(N(CCO)C(=O)CC(=O)N(CCO)c2c(I)c(C(=O)NC(CO)CO)c(I)c(C(=O)NC(CO)CO)c2I)c1I [A, malonic acid bis[3,5-bis(1,3-dihydroxyisopropylcarbamoyl)-2,4,6-triiodo-N-2-hydroxyethylanilide]]
[1]
  Viscosity 37° C.: 6.8 cp
[2]
  Osmotic Pressure 37° C.: 7.2 atm
Rat
  LD50 (Rat) upon i.v. Injection: more than 30 g Iodine/kg Body Weight

Reference: US4426371A, “Novel N-hydroxyalkylated dicarboxylic acid bis(3,5-dicarbamoyl-2,4,6-triiodoanilides), as X-ray contrast media” (Schering, Aktiengesellschaft, priority 1980, dated 1984)
